These are literature values, as cited in patent US7205008B2, “Methods of treating Alzheimer's disease and other amyloidoses using Hypericum perforatum and derivatives thereof” (ProteoTech, Inc., priority 2000, dated 2007).

SMILES strings stand for the structures.

Regarding `Cc1cc(O)c2c(=O)c3c(O)cc(O)c4c5c(O)cc(O)c6c(=O)c7c(O)cc(C)c8c1c2c(c34)c(c78)c65` [hypericin], the “fraction of hypericin absorbed” value (after swallowing a pill of Hypericum perforatum, estimated) is given as “about 20%”. Besides, the “time it lasts in the bloodstream” value (dose of 0.75 mg of hypericin) is “more than a day”.
